Data set [1] concerns 102 cellular receptors as well as 30 enzyme assays. Description: Commercial CEREP screening panel.
For data set [2], the system named is NCI-60 panel of tumor cell lines. In words: NCI-60 cell proliferation and survival. It is filed as cell-based. As to conditions: 10 μM inhibitor.
The subject of another data set is supercoiled pBR322 DNA. Description: DNA unwinding assay. Conditions: 1, 5, or 10 μM. The procedure: DNA incubated with DMSO (Sigma-Aldrich; D8418) in the presence or absence of the enzyme was run as control. After extraction by butanol (Sigma-Aldrich; 281549) and chloroform/isoamyl alcohol 24:1 (Sigma-Aldrich; C0549), the DNA was run in a 1% (w/v) agarose gel (Web Scientific; AGR-500) with a 1-kb DNA ladder (Life Technologies; 10787) for 4 hours at 80 V. The gel was then stained with SYBR Safe for 30 min before ultraviolet visualization (UVP; BioDoc-It Imaging System).

Data set [3] deals with embryonic stem cells (CRG8 ESCs). Description: ESC stemness and differentiation (microscopy, qRT-PCR). It is filed as cell-based. The text has this: CRG8 ESCs were maintained in serum-containing media supplemented with LIF (1000 U/ml; ESGRO, ESG1106) on feeder-free gelatin-coated wells. ESC culture media contained Dulbecco’s modified Eagle’s medium/knockout (Invitrogen), 15% ES-qualified fetal bovine serum (Invitrogen), 1% penicillin-streptomycin (Lonza, DE17-602E), 1% L-glutamine (Lonza, BE17-605E), 1% sodium pyruvate (Invitrogen, 11360), 1% β-mercaptoethanol, and 1% nonessential amino acids (Invitrogen, 11140). Differentiation of ESCs was induced in the presence of retinoic acid (Sigma, R2625) by withdrawal of LIF supplementation.
qRT-PCR ESC samples were collected by culturing ESC in stemness conditions in the presence of 1 μM PF1-3 or control compound for 1 or 8 days. ESC-differentiated samples were collected by treating the cells with PF1-3 or control compound 24 hours before differentiation induction. RNA was isolated using RNeasy Mini Kit (Qiagen, 74106) following the manufacturer’s instructions. At least two samples were collected for each group, and each qRT-PCR was run in triplicates. The qRT-PCR data were normalized against the housekeeping genes Gapdh, Ppia, and Hprt and expressed against control compound–treated ESC in stemness conditions. A list of primers is compiled in tables S5 and S6.

In data set [4] the test system is trophoblast stem cells (TSCs). Description: TSC differentiation gene expression (RNA-seq, qRT-PCR). It is filed as cell-based, mouse. The procedure:
Derivation and culture of TSCs were performed as previously described ([34]). Shortly, TSCs were cultured in the absence of feeders in medium supplemented with FGF4 (30 ng/ml; R&D Systems, 235-F4-025/CF), heparin (1.2 μg/ml; Sigma, H3149), and 70% conditional medium (harvested from mitomycin-treated primary mouse embryonic fibroblasts). TSC medium contained RPMI 1640 (BD Biosciences, 354230), 20% ES-qualified fetal bovine serum (Invitrogen), 1% penicillin-streptomycin (Lonza, DE17-602E), 1% L-glutamine (Lonza, BE17-605E), 1% sodium pyruvate (Invitrogen, 11360), and 0.1 mM β-mercaptoethanol. To induce differentiation, TSCs were cultured on feeder-free conditions in TSC medium lacking FGF4 and heparin supplementation.
RNA was isolated as for the ESC samples.
RNA-Seq Library synthesis and analysis were performed at the DKFZ sequencing genomics core facility (Heidelberg, Germany). Mapping and bioinformatics analysis were performed using TopHat, EdgeR Gene-E, and HOMER ([35]–[37]). The raw data from the RNA set results are available through Gene Expression Omnibus (GEO) (accession no. GSE65358). Each replicate represents at least 12 million reads, a density sufficient for qualitative analysis of gene expression. The reads were aligned to the mm10 mouse genome, allowing a mismatch of 2%. We used WebGestalt to find affected pathways ([38]).
A general note: In qPCR the cycle at which signal appears reflects the starting amount.

Data set [5] concerns H3K27me3 at Brg1 and Stat3 target genes in ESCs. In words: ChIP of H3K27me3 in ESCs. As to conditions: promoters and TSSs, vs PFI-3oMet. It is filed as cell-based. The procedure: ChIP experiments were carried out with Covaris truChIP chromatin shearing reagent according to the manufacturer’s instructions with certain modifications. ESCs were fixed on-plate with 1% formaldehyde in phosphate-buffered saline for 5 min. Cells (10 million) were resuspended in 1 ml of shearing buffer and sonicated (Covaris S220) for 200 cycles per burst, 140 W peak power, 5% duty factor for 15 min in 1-ml Covaris tubes. The supernatant was then diluted to a protein concentration of 1.7 mg ml^−1, and 350 to 500 μg of protein were used for each immunoprecipitation reaction with anti-H3K27me3 (pab-069-050, Diagenode). The targeted gene fragments were amplified with primers used by Ho et al. ([27]).

Data set [6] can be described thus: Stability in aqueous solution. As to conditions: 37°C, read-out: Half-life in aqueous solutions. It is filed as physicochemical.
Data set [7] addresses T1, full-length GFP-tagged BRM in U2OS cells (Homo sapiens, UniProt P51531).
T1 construct: constructs encoding GFP fused to the N terminus of full-length BRM; expressed in transfected cells; host or cells: U2OS
Description: Fluorescence recovery after photobleaching (FRAP). It is filed as cell-based. The procedure:
FRAP studies were performed using a protocol modified from previous studies ([24]). In brief, U2OS cells were transfected (FuGENE HD, Roche) with mammalian overexpression constructs encoding GFP fused to the N terminus of full-length BRM. The FRAP and imaging system consisted of a Zeiss LSM 710 laser scanning and control system coupled to an inverted Zeiss Axio Observer.Z1 microscope equipped with a high numerical aperture (1.3) 40× oil immersion objective. Samples were placed in an incubator chamber capable of maintaining temperature and humidity. […] Once an initial scan had been taken, a region of interest corresponding to about 50% of the entire GFP-positive nucleus was empirically selected for bleaching. A time-lapse series was then taken to record GFP recovery using 1% of the power used for bleaching. The image data sets and fluorescence recovery data were exported from ZEN 2009, the microscope control software, into Microsoft Excel to determine the average half-time for full recovery for 10 to 20 cells per treatment point.

Data set [8] addresses T2, fifth bromodomain of PB1 [PB1(5)] (Homo sapiens, UniProt Q86U86).
T2 construct: isothermal titration calorimetry (ITC) with the fifth bromodomain of PB1 [PB1(5)]; made in house
In words: Isothermal titration calorimetry (ITC) of SA. It is filed as binding. Conditions: 15°C, read-out: KD (dissociation constant). The procedure:
Experiments were carried out on a VP-ITC microcalorimeter (MicroCal). All experiments were performed at 15°C in 50 mM Hepes (pH 7.5), 150 mM NaCl. The titrations were conducted using an initial injection of 2 μl followed by 34 identical injections of 8 μl. The dilution heats were measured on separate experiments and were subtracted from the titration data. Thermodynamic parameters were calculated using ΔG = ΔH − TΔS = −RTlnKB, where ΔG, ΔH, and ΔS are the changes in free energy, enthalpy, and entropy of binding, respectively. In all cases, a single binding site model was used.
In general terms: ITC needs no label: the signal is the heat of the interaction.

In data set [9] the test system is 48 members of the human BRD family. Description: Thermal shift (ΔTm) selectivity screening. It is filed as binding. As to conditions: profiled against 48 BRDs; compounds at 10 μM.
Description: Thermal melting experiments were carried out using an Mx3005P Real-Time PCR machine (Stratagene). Proteins were buffered in 10 mM Hepes (pH 7.5), 500 mM NaCl, and assayed in a 96-well plate at a final concentration of 2 μM in 20-μl volume. Compounds were added at a final concentration of 10 μM. SYPRO Orange (Molecular Probes) was added as a fluorescence probe at a dilution of 1:1000. Excitation and emission filters for the SYPRO Orange dye were set to 465 and 590 nm, respectively. The temperature was raised with a step of 3°C/min from 25° to 96°C, and fluorescence readings were taken at each interval.
Another data set relates to BAF BRDs. In words: Initial library screening for interaction with BAF BRDs. It is filed as binding.
Where [10] appears, read: 4 days of differentiation, vs control compound.

A word on the half-life: it is the time needed for the level to fall by half in the phase considered. As usually defined, the Kd is the concentration at which binding is half-saturated.

The structures appear in SMILES notation.

T1 sequence (P51531 whole entry, the tested form may be a part): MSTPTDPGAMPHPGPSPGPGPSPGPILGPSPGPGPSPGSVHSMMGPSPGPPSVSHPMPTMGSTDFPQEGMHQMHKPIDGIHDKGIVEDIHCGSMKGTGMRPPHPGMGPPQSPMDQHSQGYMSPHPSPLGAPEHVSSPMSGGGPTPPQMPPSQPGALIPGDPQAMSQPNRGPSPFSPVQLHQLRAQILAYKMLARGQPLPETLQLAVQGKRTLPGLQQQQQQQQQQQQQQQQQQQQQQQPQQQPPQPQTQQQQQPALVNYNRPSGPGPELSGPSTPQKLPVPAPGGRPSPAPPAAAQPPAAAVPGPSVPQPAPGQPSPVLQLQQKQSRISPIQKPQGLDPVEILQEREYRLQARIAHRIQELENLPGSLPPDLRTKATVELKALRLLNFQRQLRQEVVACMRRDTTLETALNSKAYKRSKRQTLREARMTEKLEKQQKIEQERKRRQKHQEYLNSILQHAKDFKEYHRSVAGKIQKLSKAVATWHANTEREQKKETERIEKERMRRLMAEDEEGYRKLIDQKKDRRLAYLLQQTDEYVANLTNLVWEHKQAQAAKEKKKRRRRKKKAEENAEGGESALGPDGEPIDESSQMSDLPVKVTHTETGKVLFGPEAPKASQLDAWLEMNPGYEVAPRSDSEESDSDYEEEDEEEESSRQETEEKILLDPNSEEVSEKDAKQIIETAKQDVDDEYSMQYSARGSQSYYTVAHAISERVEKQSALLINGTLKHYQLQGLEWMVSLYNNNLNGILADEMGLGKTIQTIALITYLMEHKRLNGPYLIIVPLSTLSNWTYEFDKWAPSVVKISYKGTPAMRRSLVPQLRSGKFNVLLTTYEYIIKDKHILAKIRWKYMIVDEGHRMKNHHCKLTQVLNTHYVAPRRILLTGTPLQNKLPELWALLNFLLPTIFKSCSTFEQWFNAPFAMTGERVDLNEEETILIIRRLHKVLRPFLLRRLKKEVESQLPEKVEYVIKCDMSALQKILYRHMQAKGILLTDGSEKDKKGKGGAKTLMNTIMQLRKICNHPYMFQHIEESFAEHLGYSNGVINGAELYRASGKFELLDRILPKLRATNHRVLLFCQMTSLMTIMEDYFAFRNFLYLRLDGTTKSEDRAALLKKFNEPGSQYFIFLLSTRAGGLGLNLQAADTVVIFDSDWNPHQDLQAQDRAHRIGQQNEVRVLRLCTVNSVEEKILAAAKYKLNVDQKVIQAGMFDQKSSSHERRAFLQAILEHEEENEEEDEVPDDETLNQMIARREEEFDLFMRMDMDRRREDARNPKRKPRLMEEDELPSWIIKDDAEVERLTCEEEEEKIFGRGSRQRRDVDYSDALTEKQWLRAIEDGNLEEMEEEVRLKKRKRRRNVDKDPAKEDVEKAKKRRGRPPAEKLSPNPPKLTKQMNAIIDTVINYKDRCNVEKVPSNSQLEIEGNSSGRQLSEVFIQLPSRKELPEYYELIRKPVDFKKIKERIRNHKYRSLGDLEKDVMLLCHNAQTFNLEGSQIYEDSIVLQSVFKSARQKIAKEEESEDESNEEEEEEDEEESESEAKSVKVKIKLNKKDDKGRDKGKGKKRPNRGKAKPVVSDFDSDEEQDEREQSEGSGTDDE
T2 sequence (Q86U86 653-763 limits assumed): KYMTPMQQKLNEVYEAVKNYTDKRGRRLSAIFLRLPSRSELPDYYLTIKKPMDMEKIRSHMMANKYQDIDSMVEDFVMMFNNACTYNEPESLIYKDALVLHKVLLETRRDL

Regarding `O=C(/C=C/N1C[C@H]2C[C@@H]1CN2c1ccccn1)c1ccccc1O` [PFI-3, (E)-1-(2-hydroxyphenyl)-3-((1R,4R)-5-(pyridin-2-yl)-2,5-diazabicyclo[2.2.1]heptan-2-yl)prop-2-en-1-one], in data set [1], the “Interactions in CEREP panel” value is reported as “only interactions against four GPCRs (G protein–coupled receptor) with micromolar affinity”. In addition, the “Toxicity (cell proliferation and survival)” value in data set [2] is “did not result in significant toxicity for any of the cell lines tested”. The DNA intercalation result in the data set on supercoiled pBR322 DNA is “did not intercalate into DNA”. Also, the “Transcription of stemness genes” value in data set [3] (1 μM, 1 and 8 days, qRT-PCR) is “initial up- and subsequent down-regulation of stemness genes”. Besides, in [3] (1 μM, 8 days, stemness-maintaining conditions (LIF), vs PFI-3oMet), the “Morphological differentiation of ESCs” value was “led to visible differentiation”. For the same molecule, in [3] (setting [10]), the Gata4 expression result was “not significantly altered”, the Nes expression entry was “increased” and the “T (brachyury homolog) transcription” value was “at the expense of the brachyury homolog T transcription”. For the same molecule, the “Transcription of TSC differentiation markers (Prl3d1, Tpbpa)” value in data set [4] (2 μM, differentiation (D4), qRT-PCR) is reported as “marked increase”. Also, the “Levels of Eomes, Brg1, Brm, and Pbrm1/Baf180” value in [4] (qRT-PCR) was “not affected”. The “Prl7d1 and Tpbpa transcription after washout” value in [4] (washout of the inhibitor during differentiation) is “could still be observed after washout of the inhibitor during differentiation of TSCs albeit to a lesser extent”. Also, the “H3K27me3 at Brg1 and Stat3 binding sites” value in data set [5] was “increase of H3K27me3”. Moreover, the half-life in data set [6] is greater than 168 h. For the same molecule, the “Half-recovery time of wild-type GFP-BRM (FRAP)” value in data set [7] (2.5 μM SAHA, compound exposure 1 hour) is “significantly accelerated the half-recovery time”. Besides, the “Ability to displace BRM from chromatin after 24 hours” value in [7] (exposure 24 hours, 37°C) is reported as “did not show any loss”.

Regarding `O=C(O)c1ccccc1O` [SA, salicylic acid], the Kd in data set [8] was found to be 250 µM. The “Selectivity in temperature shift (ΔTm) assay” value in [9] is “good selectivity for BRDs present in BRG1/BRM and PB1”.

Turning to `CCOC(=O)Nc1cc(-c2ccc(C)c(NS(C)(=O)=O)c2)nn2c(C)nnc12` [bromosporine], the “Binding to BAF BRDs” value with BAF BRDs was “did not exhibit any binding”.

The values above are taken from publication PMC4681344, “Selective targeting of the BRG/PB1 bromodomains impairs embryonic and trophoblast stem cell maintenance” (Science Advances, 2015).
